Test [1] relates to K. pneumoniae CVM 9246 (shv18, oxa2). The format is cell-based, Klebsiella pneumoniae. The text has this:
(§1) The same MIC assay as in Example 6 was used to determine the antimicrobial susceptibility of Compound A, L-form (FIG. 15), and several variants. One variant was Compound A, D-form, with D-Lysine at position 7. Compound B is a variant in the fatty acid chain, with a fatty acid chain composition of C15H29O, and having D-Lys at position 7. Compound C is a variant in the fatty acid chain with a fatty acid chain composition of C11H21O, and having D-Lys at position 7. Variant D is a sequence variant with Phe at position 6 of the cyclic peptide, and having D-Lys at position 7. All variants were chemically synthesized.

Test [2] has as its system K. pneumonia CVM 40142 (ges-1). The format is cell-based, Klebsiella pneumoniae.
Description: as §1

Test [3] has as its system K. pneumonia CVM 15105 (shv5). The format is cell-based, Klebsiella pneumoniae.
Description: as §1

The test system of test [4] is K. pneumoniae CVM 15102 (shv5). The format is cell-based, Klebsiella pneumoniae.
Description: as §1

For the next test, the system named is E. faecium ATCC 2320. Kind of test: microbe, parasite or virus in culture. The format is cell-based. The following applies: ATCC 2320.
Description: as §1

Another test concerns E. faecium BAA-2318. In words: microbe, parasite or virus in culture. The format is cell-based. The following applies: BAA-2318.
Description: as §1

A further test relates to E. faecium ATCC 700221. In words: microbe, parasite or virus in culture. Type of test: cell-based. The following applies: ATCC 700221.
Description: as §1

Test [5] concerns E. cloacae CVM 15101 (P99). The format is cell-based, Enterobacter cloacae.
Description: as §1

Test [6] deals with Enterobacter cloacae SBJ-9395. Type of test: cell-based. The following applies: SBJ-9395.
The subject of test [7] is Serratia marcescens SAMN04022954. Type of test: cell-based. The following applies: SAMN04022954.
The test system of test [8] is Salmonella CVM 1290 (cmy2). Type of test: cell-based.
Test [9] has as its system Salmonella CVM 40119 (tem 12). The format is cell-based.
A further test relates to E. faecalis BAA-2365. Kind of test: microbe, parasite or virus in culture. Type of test: cell-based, Enterococcus faecalis. Particulars: BAA-2365.
Description: as §1

In the next test the test system is E. faecalis ATCC 51575. Kind of test: microbe, parasite or virus in culture. Type of test: cell-based, Enterococcus faecalis. Particulars: ATCC 51575.
Description: as §1

For test [10], the system named is P. aeruginosa CVM 40144 (PER-1). The format is cell-based, Pseudomonas aeruginosa.
Description: as §1

Test [11] relates to Enterobacter sakazakii E784.
Test [12] relates to Listeria monocytogenes R2-583.
Test [13] deals with Klebsiella pneumoniae SBJ-9483. The following applies: SBJ-9483.
For the next test, the system named is P. aeruginosa ATCC-27853. The following applies: ATCC-27853.
The test system of test [14] is Enterobacter cloacae SBJ-7612. Particulars: SBJ-7612.
For the next test, the system named is E. coli ATCC 25853. Particulars: ATCC 25853.
Test [15] deals with Klebsiella pneumoniae SBJ-9149. The following applies: SBJ-9149.
For test [16], the system named is Enterobacter cloacae SBJ-9222. The following applies: SBJ-9222.
The subject of test [17] is Klebsiella pneumoniae SBJ-9388. The following applies: SBJ-9388.
Test [18] deals with carbapenem-resistant (CRE) strains and MRSA strains. Kind of test: Broth microdilution MIC, summary of spectrum. Type of test: cell-based. (In general: Dilution methods test growth across graded concentrations, often in twofold steps.)

The record followed here is patent US10906940B2, “Antimicrobial peptides, pharmaceutical compositions, and methods of use thereof” (priority 2014, dated 2021).

Values after ≈ are worked out from the molar mass of the structure shown. Where a SMILES comes first, the peptide text is derived from it. Bridges are numbered along the chain shown (N, C = ends). [ ]: non-standard residue; d: D form. The star is where a group is joined. Pentadecanoyl = CCCCCCCCCCCCCCC(=O)*; Tridecanoyl = CCCCCCCCCCCCC(=O)*; Undecanoyl = CCCCCCCCCCC(=O)*; dOrn = NCCC[C@@H](N)C(=O)O

As to `CCCCCCCCCCCCC(=O)N[C@H](CCCN)C(=O)N[C@H](C(=O)N[C@@H]1C(=O)N[C@H](CCCN)C(=O)N[C@@H](CO)C(=O)N[C@@H](Cc2ccc(O)cc2)C(=O)N[C@H](CCCCN)C(=O)N[C@H](CO)C(=O)N[C@@H]([C@@H](C)CC)C(=O)N2CCC[C@H]2C(=O)N[C@@H]([C@@H](C)CC)C(=O)N2CCC[C@H]2C(=O)N[C@@H]([C@@H](C)CC)C(=O)O[C@@H]1C)C(C)C` [Compound A D-form] (Tridecanoyl-[dOrn]VT[dOrn]SY[dK][dS]IPIPI; ester 3-C), the MIC in test [1] amounted to 8 µg/mL (≈ 4.93 µM); in [2], 8 µg/mL (≈ 4.93 µM); in [3] it was 8 µg/mL (≈ 4.93 µM); in [4], 8 µg/mL (≈ 4.93 µM); in the test on E. faecium ATCC 2320 it was 8 µg/mL (≈ 4.93 µM); with E. faecium BAA-2318 it was 4 µg/mL (≈ 2.46 µM). The MIC in the test on E. faecium ATCC 700221 stood at 8 µg/mL (≈ 4.93 µM); in test [5], 8 µg/mL (≈ 4.93 µM); in test [6] it was 8 µg/mL (≈ 4.93 µM); in test [7] it was 32 µg/mL (≈ 19.7 µM); in test [8], 8 µg/mL (≈ 4.93 µM); in [9], 16 µg/mL (≈ 9.85 µM). Moreover, the MIC in the test with E. faecalis BAA-2365 amounted to 8 µg/mL (≈ 4.93 µM); with E. faecalis ATCC 51575, 8 µg/mL (≈ 4.93 µM); in test [10] it was 16 µg/mL (≈ 9.85 µM).

Consider `CCCCCCCCCCCCC(=O)N[C@H](CCCN)C(=O)N[C@H](C(=O)N[C@@H]1C(=O)N[C@H](CCCN)C(=O)N[C@@H](CO)C(=O)N[C@@H](Cc2ccc(O)cc2)C(=O)N[C@@H](CCCCN)C(=O)N[C@H](CO)C(=O)N[C@@H]([C@@H](C)CC)C(=O)N2CCC[C@H]2C(=O)N[C@@H]([C@@H](C)CC)C(=O)N2CCC[C@H]2C(=O)N[C@@H]([C@@H](C)CC)C(=O)O[C@@H]1C)C(C)C` [Compound A L-form] (Tridecanoyl-[dOrn]VT[dOrn]SYK[dS]IPIPI; ester 3-C), for which the MIC in the test on S. aureus ATCC25923 is 2 µg/mL (≈ 1.23 µM); in test [11], 8 µg/mL (≈ 4.93 µM); in test [12], 2 µg/mL (≈ 1.23 µM); in test [1], 8 µg/mL (≈ 4.93 µM); in test [2], 8 µg/mL (≈ 4.93 µM); in test [3], 8 µg/mL (≈ 4.93 µM). The MIC in [4] turned out to be 8 µg/mL (≈ 4.93 µM); with E. faecium ATCC 2320, 4 µg/mL (≈ 2.46 µM); against E. faecium BAA-2318 it was 4 µg/mL (≈ 2.46 µM); with E. faecium ATCC 700221, 4 µg/mL (≈ 2.46 µM); with P. aeruginosa SBJ-10884, 4 µg/mL (≈ 2.46 µM); in test [13], 4 µg/mL (≈ 2.46 µM). Further, the MIC is 4 µg/mL (≈ 2.46 µM) against E. coli O157: H7 EDL933; 4 µg/mL (≈ 2.46 µM) in the test on E. faecalis ATCC 29212; 8 µg/mL (≈ 4.93 µM) with P. aeruginosa -01; 8 µg/mL (≈ 4.93 µM) in test [5]; ≥128 µg/mL in test [7]; 8 µg/mL (≈ 4.93 µM) in [8]. Besides, the MIC in [9] turned out to be 8 µg/mL (≈ 4.93 µM); against P. aeruginosa -03, 8 µg/mL (≈ 4.93 µM); against P. aeruginosa ATCC-27853, 8 µg/mL (≈ 4.93 µM); in test [14], 4 µg/mL (≈ 2.46 µM); against E. coli ATCC 25853, 4 µg/mL (≈ 2.46 µM); against E. faecalis BAA-2365, 8 µg/mL (≈ 4.93 µM). The MIC against E. faecalis ATCC 51575 worked out at 8 µg/mL (≈ 4.93 µM); against P. aeruginosa -02 it was 8 µg/mL (≈ 4.93 µM); in test [15], 4 µg/mL (≈ 2.46 µM); with P. aeruginosa SBJ-10886, 4 µg/mL (≈ 2.46 µM); in the test on S. aureus ATCC 29213, 4 µg/mL (≈ 2.46 µM); in test [16] it was 8 µg/mL (≈ 4.93 µM). For the same molecule, the MIC in test [17] was 4 µg/mL (≈ 2.46 µM); in [10], 32 µg/mL (≈ 19.7 µM); in the test with Salmonella Newport #17, 16 µg/mL (≈ 9.85 µM). For the same molecule, the “sensitivity of bacteria compared with paenibacterin of US2013/0164317” value in test [18] (comparison in words) is “much greater sensitivity”. The “activity against CRE strains and MRSA strains” value in [18] (summary of Table 6) was “very potent activity”.

On to `CCCCCCCCCCCCCCC(=O)N[C@H](CCCN)C(=O)N[C@H](C(=O)N[C@@H]1C(=O)N[C@H](CCCN)C(=O)N[C@@H](CO)C(=O)N[C@@H](Cc2ccc(O)cc2)C(=O)N[C@H](CCCCN)C(=O)N[C@H](CO)C(=O)N[C@@H]([C@@H](C)CC)C(=O)N2CCC[C@H]2C(=O)N[C@@H]([C@@H](C)CC)C(=O)N2CCC[C@H]2C(=O)N[C@@H]([C@@H](C)CC)C(=O)O[C@@H]1C)C(C)C` [Compound B] (Pentadecanoyl-[dOrn]VT[dOrn]SY[dK][dS]IPIPI; ester 3-C; N-terminus assumed), for which the MIC in test [1] came to 8 µg/mL (≈ 4.84 µM); in test [2], 16 µg/mL (≈ 9.68 µM); in test [3], 16 µg/mL (≈ 9.68 µM); in test [4], 8 µg/mL (≈ 4.84 µM); against E. faecium ATCC 2320, 4 µg/mL (≈ 2.42 µM); in the test with E. faecium BAA-2318, 4 µg/mL (≈ 2.42 µM). The MIC with E. faecium ATCC 700221 was 4 µg/mL (≈ 2.42 µM); in test [5], 8 µg/mL (≈ 4.84 µM); in test [6] it was 16 µg/mL (≈ 9.68 µM); in test [7] it was ≥128 µg/mL; in test [8], 16 µg/mL (≈ 9.68 µM); in test [9], 8 µg/mL (≈ 4.84 µM). Besides, the MIC was determined as 4 µg/mL (≈ 2.42 µM) in the test on E. faecalis BAA-2365, 8 µg/mL (≈ 4.84 µM) in the test with E. faecalis ATCC 51575 and 32 µg/mL (≈ 19.4 µM) in [10].

`CCCCCCCCCCC(=O)N[C@H](CCCN)C(=O)N[C@H](C(=O)N[C@@H]1C(=O)N[C@H](CCCN)C(=O)N[C@@H](CO)C(=O)N[C@@H](Cc2ccc(O)cc2)C(=O)N[C@H](CCCCN)C(=O)N[C@H](CO)C(=O)N[C@@H]([C@@H](C)CC)C(=O)N2CCC[C@H]2C(=O)N[C@@H]([C@@H](C)CC)C(=O)N2CCC[C@H]2C(=O)N[C@@H]([C@@H](C)CC)C(=O)O[C@@H]1C)C(C)C` [Compound C] (Undecanoyl-[dOrn]VT[dOrn]SY[dK][dS]IPIPI; ester 3-C; N-terminus assumed): the MIC (in test [1]; in test [2]; in [3]; in test [4]; against E. faecium ATCC 2320; with E. faecium BAA-2318) was 8 µg/mL (≈ 5.01 µM) in each case. Besides, the MIC is 8 µg/mL (≈ 5.01 µM) in the test with E. faecium ATCC 700221; 8 µg/mL (≈ 5.01 µM) in test [5]; 8 µg/mL (≈ 5.01 µM) in test [6]; 64 µg/mL (≈ 40.1 µM) in test [7]; 16 µg/mL (≈ 10 µM) in test [8]; 8 µg/mL (≈ 5.01 µM) in [9]. Further, the MIC against E. faecalis BAA-2365 is 32 µg/mL (≈ 20 µM); with E. faecalis ATCC 51575, 32 µg/mL (≈ 20 µM); in [10], 16 µg/mL (≈ 10 µM).

Consider `CCCCCCCCCCCCC(=O)N[C@H](CCCN)C(=O)N[C@H](C(=O)N[C@@H]1C(=O)N[C@H](CCCN)C(=O)N[C@@H](CO)C(=O)N[C@@H](Cc2ccccc2)C(=O)N[C@H](CCCCN)C(=O)N[C@H](CO)C(=O)N[C@@H]([C@@H](C)CC)C(=O)N2CCC[C@H]2C(=O)N[C@@H]([C@@H](C)CC)C(=O)N2CCC[C@H]2C(=O)N[C@@H]([C@@H](C)CC)C(=O)O[C@@H]1C)C(C)C` [Variant D] (Tridecanoyl-[dOrn]VT[dOrn]SF[dK][dS]IPIPI; ester 3-C; N-terminus assumed), for which the MIC (in [1]; in [2]; in test [3]; in [4]; against E. faecium ATCC 2320; with E. faecium BAA-2318) was 8 µg/mL (≈ 4.97 µM) each time. The MIC against E. faecium ATCC 700221 was 8 µg/mL (≈ 4.97 µM); in test [5], 8 µg/mL (≈ 4.97 µM); in test [6], 32 µg/mL (≈ 19.9 µM); in test [7], ≥128 µg/mL; in [8] it was 8 µg/mL (≈ 4.97 µM); in test [9] it was 8 µg/mL (≈ 4.97 µM). Besides, the MIC against E. faecalis BAA-2365 worked out at 8 µg/mL (≈ 4.97 µM); with E. faecalis ATCC 51575, 8 µg/mL (≈ 4.97 µM); in [10], 16 µg/mL (≈ 9.95 µM).
